According to patent US20110028518A1, “DEXLANSOPRAZOLE PROCESS AND POLYMORPHS” (DR. REDDY'S LABORATORIES LTD., priority 2008, published 2011):
Blank lines part the entries; values can stand above or below the compound they belong to.

Legend:
(H+—K+)-ATPase = (H+—K+)-ATPase (Homo sapiens, UniProt P20648); conditions: Biochemical Pharmacology (1991), 42(10), 1875-8; cited from earlier work
[1] = Storage stability studies (Example 28): water content and HPLC impurities; type: physicochemical
Text: A high performance liquid chromatography (HPLC) method for measuring the chemical purity of dexlansoprazole or a compound of formula (VII) of the present application, and for determination of their corresponding impurities, involves the use of a YMC-PAK ODS-A 100×4.6, 3 μm or equivalent column.
A high performance liquid chromatography (HPLC) method for measuring the impurity at RRT 1.98, and having a mass number of m/z 467, in the present application involves the use of a YMC-PRO C-18 100×4.6 mm, 3 microns or equivalent column.
Dexlansoprazole obtained from Example 23 was tested for its storage stability. The samples were stored in a tied clear polyethylene bag, placed in a black polyethylene bag filled with N2 along with a silica desiccant pouch, and the black bag was placed into a triple laminated bag along with silica gel pouch and then sealed and stored in HDPE drum packaging under the conditions noted in the following results tables. Chemical purity of the samples was measured by HPLC before and after storage.
The following impurities were monitored during stability testing:
2-mercaptobenzimidazole (designated “2-MB) having the following structure;
a “nitrosulphoxide” impurity (designated “NS”) having the following structure;
a “sulfide” impurity, having a chemical name 2-[[{4-(2,2,2-trifluoroethoxy)-3-methylpyridine-2-yl}methyl]thio]-1H-benzimidazole and the following structure;
a “sulfone” impurity, having a chemical name 2-[[{4-(2,2,2-trifluoroethoxy)-3-methylpyridine-2-yl}methyl]sulfonyl]-1H-benzimidazole and the following structure;
and an unidentified impurity at RRT (relative retention time) 1.98. Also given in the following tables are the concentration of the highest unidentified impurity as measured by HPLC, total impurities, and the water content. All results in the tables given below are expressed on a weight percent basis, and “ND” means not detected.

[2] = Particle size distribution; type: physicochemical
Text: “10th volume percentile” as used herein, unless otherwise defined refers to the size of particles, below which 10% of the measured sample volume lies; “50th volume percentile” as used herein, unless otherwise defined refers to the size of particles, below which 50% of the measured samples volume lies, and “90th volume percentile” as used herein, unless otherwise defined refers to the size of particles, below which 90% of the measured samples volume lies.
Particle size distributions of dexlansoprazole particles may be measured with a Jayant Test Siever (e.g., using mesh number 60, mesh opening 250 μm). Particle size distributions of dexlansoprazole particles may also be measured using light scattering equipment such as a Malvern Master Sizer 2000 (helium neon laser source, dexlansoprazole suspended in light liquid paraffin, size range: 0.02 μm to 2000 μm). Other techniques are also useful.

[3] = Bulk density (USP Test 616, method 2); type: physicochemical
Text: In an embodiment, the present application provides dexlansoprazole having bulk densities less than about 1 g/ml. Bulk density has been determined using Test 616 “Bulk Density and Tapped Density,” in United States Pharmacopoeia 29, United States Pharmacopeial Convention, Inc., Rockville, Md., 2005, in method 2.

[4] = Specific surface area by the BET method; type: physicochemical
Protocol: The specific surface area of dexlansoprazole of the present application has been measured by a BET (Brunauer, Emmett and Teller) specific surface method using a Micromeritics Gemini surface area analyzer, model 2365. Samples for analysis were degassed at 40° C. under reduced pressure and the determination of the adsorption of nitrogen gas at 77° K was measured for relative pressure in the range of 0.05-0.3.

[5] = At 25 ± 2° C. and 60 ± 5% Relative Humidity, 1 month
[6] = At 25 ± 2° C. and 60 ± 5% Relative Humidity, 2 months
[7] = At 25 ± 2° C. and 60 ± 5% Relative Humidity, 3 months
[8] = At 25 ± 2° C. and 60 ± 5% Relative Humidity, 15 days
[9] = At 25 ± 2° C. and 60 ± 5% Relative Humidity, 45 days
[10] = At 25 ± 2° C. and 60 ± 5% Relative Humidity, Initial
[11] = storage at 2-8° C. and at 25 ± 2° C./60 ± 5% RH, up to 3 months

(H+—K+)-ATPase, sequence (P20648 whole entry): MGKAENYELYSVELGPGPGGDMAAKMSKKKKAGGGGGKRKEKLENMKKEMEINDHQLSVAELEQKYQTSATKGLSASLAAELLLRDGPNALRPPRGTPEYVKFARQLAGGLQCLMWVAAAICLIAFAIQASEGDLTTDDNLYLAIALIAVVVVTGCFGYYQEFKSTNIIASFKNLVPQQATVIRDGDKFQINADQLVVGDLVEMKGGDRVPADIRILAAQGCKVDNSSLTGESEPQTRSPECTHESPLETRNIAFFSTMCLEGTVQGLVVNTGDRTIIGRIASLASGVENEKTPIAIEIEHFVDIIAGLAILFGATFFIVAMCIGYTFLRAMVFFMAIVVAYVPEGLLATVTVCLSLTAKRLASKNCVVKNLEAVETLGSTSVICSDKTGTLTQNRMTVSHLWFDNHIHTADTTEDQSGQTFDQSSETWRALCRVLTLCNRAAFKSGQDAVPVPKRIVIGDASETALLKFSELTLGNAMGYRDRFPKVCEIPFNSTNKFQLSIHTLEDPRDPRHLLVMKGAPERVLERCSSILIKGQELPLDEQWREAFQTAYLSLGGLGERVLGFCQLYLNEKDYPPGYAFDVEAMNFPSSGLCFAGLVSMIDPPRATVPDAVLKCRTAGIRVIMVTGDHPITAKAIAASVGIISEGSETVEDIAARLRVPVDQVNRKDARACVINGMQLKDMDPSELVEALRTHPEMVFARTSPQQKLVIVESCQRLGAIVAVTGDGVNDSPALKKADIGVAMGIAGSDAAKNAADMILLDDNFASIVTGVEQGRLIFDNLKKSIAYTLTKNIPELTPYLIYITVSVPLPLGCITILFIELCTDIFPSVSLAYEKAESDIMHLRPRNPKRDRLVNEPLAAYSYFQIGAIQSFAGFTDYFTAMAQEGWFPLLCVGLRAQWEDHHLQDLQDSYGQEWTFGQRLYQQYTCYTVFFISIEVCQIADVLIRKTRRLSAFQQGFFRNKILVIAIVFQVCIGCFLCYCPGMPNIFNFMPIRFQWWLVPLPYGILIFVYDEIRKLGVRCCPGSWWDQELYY
(H+—K+)-ATPase, sequence (P51164 whole entry partner): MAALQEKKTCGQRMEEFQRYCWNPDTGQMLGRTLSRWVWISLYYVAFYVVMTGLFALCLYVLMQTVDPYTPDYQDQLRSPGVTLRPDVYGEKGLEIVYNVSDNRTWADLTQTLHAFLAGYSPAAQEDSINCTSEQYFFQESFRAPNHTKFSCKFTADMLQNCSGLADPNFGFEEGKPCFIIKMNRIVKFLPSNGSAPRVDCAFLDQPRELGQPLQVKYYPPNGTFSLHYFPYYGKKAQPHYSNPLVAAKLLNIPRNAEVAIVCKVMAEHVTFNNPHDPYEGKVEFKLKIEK

SMILES: Cc1c(OCC(F)(F)F)ccnc1C[S@@+]([O-])c1nc2ccccc2[nH]1 [Dexlansoprazole, (R)-2-[[[3-methyl-4-(2,2,2-trifluoroethoxy)-2-pyridinyl]methyl]sulfinyl]-1H-benzimidazole]
antisecretory activity due to the inhibition of (H+—K+)-ATPase ((H+—K+)-ATPase): antisecretory activity

2-MB ([1]; At 2-8° C., 1 month): 0.04 weight percent
Highest Impurity ([1]; At 2-8° C., 1 month): 0.07 weight percent
RRT 1.98 ([1]; At 2-8° C., 1 month): 0.06 weight percent
Sulfide ([1]; At 2-8° C., 1 month): 0.45 weight percent
Sulfone ([1]; At 2-8° C., 1 month): 0.57 weight percent
Total impurities ([1]; At 2-8° C., 1 month): 1.54 weight percent
Water ([1]; At 2-8° C., 1 month): 3.54 weight percent
2-MB ([1]; At 2-8° C., 2 months): 0.03 weight percent
Highest Impurity ([1]; At 2-8° C., 2 months): 0.07 weight percent
RRT 1.98 ([1]; At 2-8° C., 2 months): 0.06 weight percent
Sulfide ([1]; At 2-8° C., 2 months): 0.50 weight percent
Sulfone ([1]; At 2-8° C., 2 months): 0.61 weight percent
Total impurities ([1]; At 2-8° C., 2 months): 1.76 weight percent
Water ([1]; At 2-8° C., 2 months): 2.61 weight percent
2-MB ([1]; At 2-8° C., 3 months): 0.02 weight percent
Highest Impurity ([1]; At 2-8° C., 3 months): 0.07 weight percent
RRT 1.98 ([1]; At 2-8° C., 3 months): 0.06 weight percent
Sulfide ([1]; At 2-8° C., 3 months): 0.48 weight percent
Sulfone ([1]; At 2-8° C., 3 months): 0.59 weight percent
Total impurities ([1]; At 2-8° C., 3 months): 1.63 weight percent
Water ([1]; At 2-8° C., 3 months): 2.24 weight percent
2-MB ([1]; At 2-8° C., Initial): 0.02 weight percent
Highest Impurity ([1]; At 2-8° C., Initial): 0.07 weight percent
RRT 1.98 ([1]; At 2-8° C., Initial): 0.03 weight percent
Sulfide ([1]; At 2-8° C., Initial): 0.47 weight percent
Sulfone ([1]; At 2-8° C., Initial): 0.59 weight percent
Total impurities ([1]; At 2-8° C., Initial): 1.42 weight percent
Water ([1]; At 2-8° C., Initial): 2.90 weight percent
2-MB [1, 5]: 0.05 weight percent
Highest Impurity [1, 5]: 0.09 weight percent
RRT 1.98 [1, 5]: 0.14 weight percent
Sulfide [1, 5]: 0.47 weight percent
Sulfone [1, 5]: 0.55 weight percent
Total impurities [1, 5]: 1.80 weight percent
Water [1, 5]: 2.89 weight percent
2-MB [1, 6]: 0.04 weight percent
Highest Impurity [1, 6]: 0.07 weight percent
RRT 1.98 [1, 6]: 0.15 weight percent
Sulfide [1, 6]: 0.50 weight percent
Sulfone [1, 6]: 0.61 weight percent
Total impurities [1, 6]: 1.99 weight percent
Water [1, 6]: 1.54 weight percent
2-MB [1, 7]: 0.04 weight percent
Highest Impurity [1, 7]: 0.07 weight percent
RRT 1.98 [1, 7]: 0.17 weight percent
Sulfide [1, 7]: 0.50 weight percent
Sulfone [1, 7]: 0.61 weight percent
Total impurities [1, 7]: 1.89 weight percent
Water [1, 7]: 1.50 weight percent
2-MB [1, 8]: 0.03 weight percent
Highest Impurity [1, 8]: 0.08 weight percent
RRT 1.98 [1, 8]: 0.09 weight percent
Sulfide [1, 8]: 0.50 weight percent
Sulfone [1, 8]: 0.61 weight percent
Total impurities [1, 8]: 1.76 weight percent
Water [1, 8]: 1.68 weight percent
2-MB [1, 9]: 0.04 weight percent
Highest Impurity [1, 9]: 0.06 weight percent
RRT 1.98 [1, 9]: 0.14 weight percent
Sulfide [1, 9]: 0.52 weight percent
Sulfone [1, 9]: 0.64 weight percent
Total impurities [1, 9]: 1.93 weight percent
Water [1, 9]: 1.29 weight percent
2-MB [1, 10]: 0.02 weight percent
Highest Impurity [1, 10]: 0.07 weight percent
RRT 1.98 [1, 10]: 0.03 weight percent
Sulfide [1, 10]: 0.47 weight percent
Sulfone [1, 10]: 0.59 weight percent
Total impurities [1, 10]: 1.42 weight percent
Water [1, 10]: 2.90 weight percent
Physical form during stability testing [1, 11]: remained in an amorphous form
SMILES: Cc1c(OCC(F)(F)F)ccnc1C[S@@+]([O-])c1nc2ccccc2[nH]1 [Example 23, dexlansoprazole]
Appearance during stability testing [1, 11]: maintained their initial cream color powder form

Particle size distribution d(0.1) [2]: 0.896 μm
Particle size distribution d(0.5) [2]: 5.308 μm
Particle size distribution d(0.9) [2]: 12.938
Bulk density ([3]; after tapping): 0.65 g/mL
Bulk density ([3]; before tapping): 0.47 g/mL
SMILES: Cc1c(OCC(F)(F)F)ccnc1C[S@@+]([O-])c1nc2ccccc2[nH]1 [Example 24, dexlansoprazole]

specific surface area by the BET method [4]: 1.0608 m^2/g
SMILES: Cc1c(OCC(F)(F)F)ccnc1C[S@@+]([O-])c1nc2ccccc2[nH]1 [Example 25, dexlansoprazole]
